From US20220289708A1, “SUBSTITUTED N-PHENYL URACILS, SALTS THEREOF AND THEIR USE AS HERBICIDAL AGENTS” (Bayer Aktiengesellschaft, priority 2019, published 2022)

Columns and labels:
Assay in all cases: Post-emergence herbicidal action
Format in all cases: in vivo
[1] = system: Alopecurus myosuroides; conditions: application rate 20 g/ha, rated visually after about 3 weeks vs untreated controls
Description: (§1) a. Post-Emergence Herbicidal Action and Crop Plant Compatibility Seeds of monocotyledonous and dicotyledonous weeds and crop plants were placed in sandy loam in plastic or wood-fiber pots, covered with soil and cultivated in a greenhouse under controlled growth conditions. 2 to 3 weeks after sowing, the test plants were treated at the one-leaf stage. The compounds of the invention, formulated in the form of wettable powders (WP) or as emulsion concentrates (EC), were then sprayed onto the green parts of the plants as aqueous suspension or emulsion with addition of 0.5% additive at a water application rate of 600 l/ha (converted). After the test plants had been kept in the greenhouse under optimum growth conditions for about 3 weeks, the activity of the preparations was rated visually in comparison to untreated controls. For example, 100% activity=the plants have died, 0% activity=like control plants. Tables A1 to A15 below show the effects of selected compounds of the general formula (I) according to Tables I.1 to I.36 on various harmful plants and at an application rate corresponding to 20 g/ha and less, which were obtained by the experimental procedure mentioned above.

[2] = system: Setaria viridis; conditions: application rate 20 g/ha, rated visually after about 3 weeks vs untreated controls
Description: as §1

[3] = system: Abutilon theophrasti; conditions: application rate 20 g/ha, rated visually after about 3 weeks vs untreated controls
Description: as §1

[4] = system: Echinochloa crus-galli; conditions: application rate 20 g/ha, rated visually after about 3 weeks vs untreated controls
Description: as §1

[5] = system: Viola tricolor; conditions: application rate 20 g/ha
Description: as §1

[6] = system: Veronica persica; conditions: application rate 20 g/ha
Description: as §1

[7] = system: Amaranthus retroflexus; conditions: application rate 20 g/ha, rated visually after about 3 weeks vs untreated controls
Description: as §1

[8] = system: Lolium rigidum; conditions: application rate 20 g/ha, rated visually after about 3 weeks vs untreated controls
Description: as §1

[9] = system: Pharbitis purpurea; conditions: application rate 20 g/ha, rated visually after about 3 weeks vs untreated controls
Description: as §1

[10] = system: Avena fatua; conditions: application rate 20 g/ha, rated visually after about 3 weeks vs untreated controls
Description: as §1

[11] = system: Matricaria inodora; conditions: application rate 20 g/ha, rated visually after about 3 weeks vs untreated controls
Description: as §1

[12] = system: Digitaria sanguinalis; conditions: application rate 20 g/ha, rated visually after about 3 weeks vs untreated controls
Description: as §1

[13] = system: Polygonum convolvulus; conditions: application rate 20 g/ha
Description: as §1

Compound: CCOCCOC(=O)COc1ncccc1Oc1cc(-n2c(=O)cc(C(F)(F)F)n(C)c2=O)c(F)cc1Cl [I.15-2]
- Alopecurus myosuroides (efficacy in %) [1]: 100%
- Setaria viridis (efficacy in %) [2]: 100%
- Abutilon theophrasti (efficacy in %) [3]: 100%
- Echinochloa crus-galli (efficacy in %) [4]: 100%
- Viola tricolor (efficacy in %) [5]: 100%
- Veronica persica (efficacy in %) [6]: 100%
- Amaranthus retroflexus (efficacy in %) [7]: 100%
- Lolium rigidum (efficacy in %) [8]: 90%
- Pharbitis purpurea (efficacy in %) [9]: 100%
- Avena fatua (efficacy in %) [10]: 90%
- Matricaria inodora (efficacy in %) [11]: 100%
- Digitaria sanguinalis (efficacy in %) [12]: 100%
- Polygonum convolvulus (efficacy in %) [13]: 100%

Compound: Cc1nn(C)cc1COC(=O)COc1ncccc1Oc1cc(-n2c(=O)cc(C(F)(F)F)n(C)c2=O)c(F)cc1Cl [I.15-366]
- Alopecurus myosuroides (efficacy in %) [1]: 100%
- Setaria viridis (efficacy in %) [2]: 100%
- Abutilon theophrasti (efficacy in %) [3]: 100%
- Echinochloa crus-galli (efficacy in %) [4]: 100%
- Viola tricolor (efficacy in %) [5]: 100%
- Veronica persica (efficacy in %) [6]: 100%
- Amaranthus retroflexus (efficacy in %) [7]: 100%
- Lolium rigidum (efficacy in %) [8]: 90%
- Pharbitis purpurea (efficacy in %) [9]: 100%
- Avena fatua (efficacy in %) [10]: 90%
- Matricaria inodora (efficacy in %) [11]: 100%
- Digitaria sanguinalis (efficacy in %) [12]: 100%

Compound: Cc1c(COC(=O)COc2ncccc2Oc2cc(-n3c(=O)cc(C(F)(F)F)n(C)c3=O)c(F)cc2Cl)cnn1C [I.15-367]
- Alopecurus myosuroides (efficacy in %) [1]: 100%
- Setaria viridis (efficacy in %) [2]: 100%
- Abutilon theophrasti (efficacy in %) [3]: 100%
- Echinochloa crus-galli (efficacy in %) [4]: 100%
- Viola tricolor (efficacy in %) [5]: 100%
- Veronica persica (efficacy in %) [6]: 100%
- Amaranthus retroflexus (efficacy in %) [7]: 100%
- Lolium rigidum (efficacy in %) [8]: 80%
- Pharbitis purpurea (efficacy in %) [9]: 100%
- Avena fatua (efficacy in %) [10]: 90%
- Matricaria inodora (efficacy in %) [11]: 100%
- Digitaria sanguinalis (efficacy in %) [12]: 100%

Compound: CCn1cc(COC(=O)COc2ncccc2Oc2cc(-n3c(=O)cc(C(F)(F)F)n(C)c3=O)c(F)cc2Cl)c(C)n1 [I.15-368]
- Alopecurus myosuroides (efficacy in %) [1]: 100%
- Setaria viridis (efficacy in %) [2]: 100%
- Abutilon theophrasti (efficacy in %) [3]: 100%
- Echinochloa crus-galli (efficacy in %) [4]: 100%
- Viola tricolor (efficacy in %) [5]: 100%
- Veronica persica (efficacy in %) [6]: 100%
- Amaranthus retroflexus (efficacy in %) [7]: 100%
- Lolium rigidum (efficacy in %) [8]: 90%
- Pharbitis purpurea (efficacy in %) [9]: 100%
- Avena fatua (efficacy in %) [10]: 100%
- Matricaria inodora (efficacy in %) [11]: 100%
- Digitaria sanguinalis (efficacy in %) [12]: 100%

Compound: CCS(=O)(=O)NCCOC(=O)COc1ncccc1Oc1cc(-n2c(=O)cc(C(F)(F)F)n(C)c2=O)c(F)cc1Cl [I.15-421]
- Alopecurus myosuroides (efficacy in %) [1]: 100%
- Setaria viridis (efficacy in %) [2]: 100%
- Abutilon theophrasti (efficacy in %) [3]: 100%
- Echinochloa crus-galli (efficacy in %) [4]: 100%
- Viola tricolor (efficacy in %) [5]: 100%
- Veronica persica (efficacy in %) [6]: 100%
- Amaranthus retroflexus (efficacy in %) [7]: 100%
- Lolium rigidum (efficacy in %) [8]: 100%
- Pharbitis purpurea (efficacy in %) [9]: 100%
- Avena fatua (efficacy in %) [10]: 100%
- Matricaria inodora (efficacy in %) [11]: 100%
- Digitaria sanguinalis (efficacy in %) [12]: 100%
- Polygonum convolvulus (efficacy in %) [13]: 100%

Compound: CCOC(COC(=O)COc1ncccc1Oc1cc(-n2c(=O)cc(C(F)(F)F)n(C)c2=O)c(F)cc1Cl)OCC [I.15-422]
- Alopecurus myosuroides (efficacy in %) [1]: 100%
- Setaria viridis (efficacy in %) [2]: 100%
- Abutilon theophrasti (efficacy in %) [3]: 100%
- Echinochloa crus-galli (efficacy in %) [4]: 100%
- Viola tricolor (efficacy in %) [5]: 100%
- Veronica persica (efficacy in %) [6]: 100%
- Amaranthus retroflexus (efficacy in %) [7]: 100%
- Lolium rigidum (efficacy in %) [8]: 100%
- Pharbitis purpurea (efficacy in %) [9]: 100%
- Avena fatua (efficacy in %) [10]: 80%
- Matricaria inodora (efficacy in %) [11]: 100%
- Digitaria sanguinalis (efficacy in %) [12]: 100%
- Polygonum convolvulus (efficacy in %) [13]: 100%

Compound: COCCOC(=O)COc1ncccc1Oc1cc(-n2c(=O)cc(C(F)(F)F)n(C)c2=O)c(F)cc1Br [I.16-1]
- Alopecurus myosuroides (efficacy in %) [1]: 100%
- Setaria viridis (efficacy in %) [2]: 100%
- Abutilon theophrasti (efficacy in %) [3]: 100%
- Echinochloa crus-galli (efficacy in %) [4]: 100%
- Viola tricolor (efficacy in %) [5]: 100%
- Veronica persica (efficacy in %) [6]: 100%
- Amaranthus retroflexus (efficacy in %) [7]: 100%
- Lolium rigidum (efficacy in %) [8]: 90%
- Pharbitis purpurea (efficacy in %) [9]: 100%
- Avena fatua (efficacy in %) [10]: 90%
- Matricaria inodora (efficacy in %) [11]: 100%
- Digitaria sanguinalis (efficacy in %) [12]: 100%
- Polygonum convolvulus (efficacy in %) [13]: 100%

Compound: CCOCCOC(=O)COc1ncccc1Oc1cc(-n2c(=O)cc(C(F)(F)F)n(C)c2=O)c(F)cc1Br [I.16-2]
- Alopecurus myosuroides (efficacy in %) [1]: 100%
- Setaria viridis (efficacy in %) [2]: 100%
- Abutilon theophrasti (efficacy in %) [3]: 100%
- Echinochloa crus-galli (efficacy in %) [4]: 100%
- Viola tricolor (efficacy in %) [5]: 100%
- Veronica persica (efficacy in %) [6]: 100%
- Amaranthus retroflexus (efficacy in %) [7]: 100%
- Lolium rigidum (efficacy in %) [8]: 100%
- Pharbitis purpurea (efficacy in %) [9]: 100%
- Avena fatua (efficacy in %) [10]: 100%
- Matricaria inodora (efficacy in %) [11]: 100%
- Digitaria sanguinalis (efficacy in %) [12]: 100%
- Polygonum convolvulus (efficacy in %) [13]: 100%

Compound: COCCOCCOC(=O)COc1ncccc1Oc1cc(-n2c(=O)cc(C(F)(F)F)n(C)c2=O)c(F)cc1Br [I.16-23]
- Alopecurus myosuroides (efficacy in %) [1]: 100%
- Setaria viridis (efficacy in %) [2]: 100%
- Abutilon theophrasti (efficacy in %) [3]: 100%
- Echinochloa crus-galli (efficacy in %) [4]: 100%
- Viola tricolor (efficacy in %) [5]: 100%
- Veronica persica (efficacy in %) [6]: 100%
- Amaranthus retroflexus (efficacy in %) [7]: 100%
- Lolium rigidum (efficacy in %) [8]: 100%
- Pharbitis purpurea (efficacy in %) [9]: 100%
- Avena fatua (efficacy in %) [10]: 100%
- Matricaria inodora (efficacy in %) [11]: 100%
- Digitaria sanguinalis (efficacy in %) [12]: 100%
- Polygonum convolvulus (efficacy in %) [13]: 100%

Compound: Cn1c(C(F)(F)F)cc(=O)n(-c2cc(Oc3cccnc3OCC(=O)OCC3CCCO3)c(Br)cc2F)c1=O (centres unmarked) [I.16-71]
- Alopecurus myosuroides (efficacy in %) [1]: 100%
- Setaria viridis (efficacy in %) [2]: 100%
- Abutilon theophrasti (efficacy in %) [3]: 100%
- Echinochloa crus-galli (efficacy in %) [4]: 100%
- Viola tricolor (efficacy in %) [5]: 100%
- Veronica persica (efficacy in %) [6]: 100%
- Amaranthus retroflexus (efficacy in %) [7]: 100%
- Lolium rigidum (efficacy in %) [8]: 90%
- Pharbitis purpurea (efficacy in %) [9]: 100%
- Avena fatua (efficacy in %) [10]: 90%
- Matricaria inodora (efficacy in %) [11]: 100%
- Digitaria sanguinalis (efficacy in %) [12]: 100%
- Polygonum convolvulus (efficacy in %) [13]: 100%

Compound: Cn1c(C(F)(F)F)cc(=O)n(-c2cc(Oc3cccnc3OCC(=O)OCC#N)c(Br)cc2F)c1=O [I.16-176]
- Alopecurus myosuroides (efficacy in %) [1]: 100%
- Setaria viridis (efficacy in %) [2]: 100%
- Abutilon theophrasti (efficacy in %) [3]: 100%
- Echinochloa crus-galli (efficacy in %) [4]: 100%
- Viola tricolor (efficacy in %) [5]: 100%
- Veronica persica (efficacy in %) [6]: 100%
- Amaranthus retroflexus (efficacy in %) [7]: 100%
- Lolium rigidum (efficacy in %) [8]: 80%
- Pharbitis purpurea (efficacy in %) [9]: 100%
- Avena fatua (efficacy in %) [10]: 90%
- Matricaria inodora (efficacy in %) [11]: 100%
- Digitaria sanguinalis (efficacy in %) [12]: 100%
- Polygonum convolvulus (efficacy in %) [13]: 90%

Compound: Cn1c(C(F)(F)F)cc(=O)n(-c2cc(Oc3cccnc3OCC(=O)OCC3OCCO3)c(Br)cc2F)c1=O [I.16-424]
- Alopecurus myosuroides (efficacy in %) [1]: 100%
- Setaria viridis (efficacy in %) [2]: 100%
- Abutilon theophrasti (efficacy in %) [3]: 100%
- Echinochloa crus-galli (efficacy in %) [4]: 100%
- Viola tricolor (efficacy in %) [5]: 100%
- Veronica persica (efficacy in %) [6]: 100%
- Amaranthus retroflexus (efficacy in %) [7]: 100%
- Lolium rigidum (efficacy in %) [8]: 80%
- Pharbitis purpurea (efficacy in %) [9]: 100%
- Avena fatua (efficacy in %) [10]: 90%
- Matricaria inodora (efficacy in %) [11]: 100%
- Digitaria sanguinalis (efficacy in %) [12]: 100%
- Polygonum convolvulus (efficacy in %) [13]: 100%

Compound: COCCOCCOC(=O)COc1ncccc1Oc1cc(-n2c(=O)cc(C(F)(F)F)n(C)c2=O)c(F)cc1C#N [I.35-23]
- Alopecurus myosuroides (efficacy in %) [1]: 100%
- Setaria viridis (efficacy in %) [2]: 100%
- Abutilon theophrasti (efficacy in %) [3]: 100%
- Echinochloa crus-galli (efficacy in %) [4]: 100%
- Viola tricolor (efficacy in %) [5]: 100%
- Veronica persica (efficacy in %) [6]: 100%
- Amaranthus retroflexus (efficacy in %) [7]: 100%
- Pharbitis purpurea (efficacy in %) [9]: 100%
- Avena fatua (efficacy in %) [10]: 90%
- Matricaria inodora (efficacy in %) [11]: 100%
- Digitaria sanguinalis (efficacy in %) [12]: 100%

Compound: COCCOCCOC(=O)COc1ncc(F)cc1Oc1cc(-n2c(=O)cc(C(F)(F)F)n(C)c2=O)c(F)cc1Cl [I.36-23]
- Alopecurus myosuroides (efficacy in %) [1]: 100%
- Setaria viridis (efficacy in %) [2]: 100%
- Abutilon theophrasti (efficacy in %) [3]: 100%
- Echinochloa crus-galli (efficacy in %) [4]: 100%
- Viola tricolor (efficacy in %) [5]: 100%
- Veronica persica (efficacy in %) [6]: 100%
- Amaranthus retroflexus (efficacy in %) [7]: 100%
- Lolium rigidum (efficacy in %) [8]: 90%
- Pharbitis purpurea (efficacy in %) [9]: 100%
- Matricaria inodora (efficacy in %) [11]: 100%
- Digitaria sanguinalis (efficacy in %) [12]: 100%
- Polygonum convolvulus (efficacy in %) [13]: 90%
